The target in assay [1] is T1, Brd4 bromodomain 1 (BRD4(1)) (Homo sapiens, UniProt O60885).
T1 construct: Illustrative results with the first bromodomain of Brd4; made in house; host or cells: E. coli BL21 (DE3)
The assay is described as follows: Inhibition of tetra-acetylated histone H4 binding to Brd4 bromodomain 1 (TR-FRET). Also on record: key: Active: Compounds with an IC50 value less than 30 μM were deemed to be active.; Not Active: Compounds with an IC50 value less than 30 μM were deemed to be active. The following applies: tetra-acetylated histone H4 peptide, active = IC50 <30 μM. The protocol:
(§1) Proteins were cloned and overexpressed with a N-terminal 6×His tag, then purified by nickel affinity followed by size exclusion chromatography. Briefly, E. coli BL21 (DE3) cells were transformed with a recombinant expression vector encoding N-terminally Nickel affinity tagged bromodomains from Brd2, Brd3, Brd4. Cell cultures were incubated at 37° C. with shaking to the appropriate density and induced overnight with IPTG. The supernatant of lysed cells was loaded onto Ni-IDA column for purification. Eluted protein is pooled, concentrated and further purified by size exclusion chromatography. Fractions representing monomeric protein were pooled, concentrated, aliquoted, and frozen at −80° C. for use in subsequent experiments.
(§2) Binding of tetra-acetylated histone H4 and BET bromodomains was confirmed by a Time Resolved Fluorescence Resonance Energy Transfer (TR-FRET) method. N-terminally His-tagged bromodomains (200 nM) and biotinylated tetra-acetylated histone H4 peptide (25-50 nM, Millipore) were incubated in the presence of Europium Cryptate-labeled streptavidin (Cisbio Cat. #610SAKLB) and XL665-labeled monoclonal anti-His antibody (Cisbio Cat. #61HISXLB) in a white 96 well microtiter plate (Greiner). For inhibition assays, serially diluted test compound was added to these reactions in a 0.2% final concentration of DMSO. Final buffer concentrations were 30 mM HEPES pH 7.4, 30 mM NaCl, 0.3 mM CHAPS, 20 mM phosphate pH 7.0, 320 mM KF, 0.08% BSA). After a 2-h incubation at room temperature, the fluorescence by FRET was measured at 665 and 620 nm by a SynergyH4 plate reader (Biotek). Illustrative results with the first bromodomain of Brd4 and the second bromodomain of Brd2 are shown below. The binding inhibitory activity was shown by a decrease in 665 nm fluorescence relative to 620 nm. IC50 values were determined from a dose response curve.

Assay [2] deals with T2, second bromodomain of Brd2 (BRD2(2)) (Homo sapiens, UniProt P25440).
T2 construct: made in house; host or cells: E. coli BL21 (DE3)
The assay is described as follows: Inhibition of tetra-acetylated histone H4 binding to Brd2 bromodomain 2 (TR-FRET). Also on record: key: Active: Compounds with an IC50 value less than 30 μM were deemed to be active.; Not Active: Compounds with an IC50 value less than 30 μM were deemed to be active. To be noted: tetra-acetylated histone H4 peptide, active = IC50 <30 μM. As to the method: as §1, §2
A general note: In TR-FRET formats the signal depends on donor and acceptor labels being close together.

The values that follow come from patent US9271978B2 (Zenith Epigenetics Corp., priority 2012, dated 2016).

T2 sequence (P25440 344-453 limits assumed): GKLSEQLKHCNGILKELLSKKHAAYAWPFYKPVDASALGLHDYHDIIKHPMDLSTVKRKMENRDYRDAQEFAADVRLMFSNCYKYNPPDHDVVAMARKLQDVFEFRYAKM

Take `Cc1noc(C)c1-c1ccc(=O)n([C@@H](C)c2ccc(F)cc2)c1` (single isomer, unassigned) [Example 110]: the “FRET activity (IC50 <30 μM) BRD4(1)” value in assay [1] is “Active”. Besides, in assay [2], the “FRET activity (IC50 <30 μM) BRD2(2)” value is recorded as “Active”.
In the case of `Cc1noc(C)c1-c1ccc(=O)n(Cc2ncccn2)n1` [Example 3, 6-(3,5-Dimethylisoxazol-4-yl)-2-(pyrimidin-2-ylmethyl)pyridazin-3(2H)-one], in assay [1], the “FRET activity (IC50 <30 μM) BRD4(1)” value was “Not Active”. The “FRET activity (IC50 <30 μM) BRD2(2)” value in assay [2] is “Active”.
On to `Cc1noc(C)c1-c1cnc(=O)n(Cc2ccccc2)c1` [Example 8, 1-Benzyl-5-(3,5-dimethylisoxazol-4-yl)pyrimidin-2(1H)-one], for which the “FRET activity (IC50 <30 μM) BRD4(1)” value in assay [1] was “Active”. Besides, the “FRET activity (IC50 <30 μM) BRD2(2)” value in assay [2] was “Active”.
Regarding `Cc1noc(C)c1-c1ccc(=O)n(Cc2ccc(CN(C)C)cc2)c1` [Example 9, 1-(4-((Dimethylamino)methyl)benzyl)-5-(3,5-dimethylisoxazol-4-yl)pyridin-2(1H)-one hydrochloric acid], the “FRET activity (IC50 <30 μM) BRD4(1)” value in assay [1] was “Active”. The “FRET activity (IC50 <30 μM) BRD2(2)” value in assay [2] is “Active”.
`Cc1noc(C)c1-c1ccc(=O)n(CC2CCNCC2)c1` [Example 10, 5-(3,5-Dimethylisoxazol-4-yl)-1-(piperidin-4-ylmethyl)pyridin-2(1H)-one hydrochloric acid]: the “FRET activity (IC50 <30 μM) BRD4(1)” value in assay [1] is on record as “Active”. Also, the “FRET activity (IC50 <30 μM) BRD2(2)” value in assay [2] is recorded as “Active”.
On to `Cc1noc(C)c1Cn1cc(-c2c(C)noc2C)ccc1=O` [Example 11, 5-(3,5-Dimethylisoxazol-4-yl)-1-((3,5-dimethylisoxazol-4-yl)methyl)pyridin-2(1H)-one], for which the “FRET activity (IC50 <30 μM) BRD4(1)” value in assay [1] is recorded as “Active”. Moreover, in assay [2], the “FRET activity (IC50 <30 μM) BRD2(2)” value is on record as “Active”.
Regarding `Cc1cc(=O)n(Cc2ccccc2)cc1-c1c(C)noc1C` [Example 12, 1-Benzyl-5-(3,5-dimethylisoxazol-4-yl)-4-methylpyridin-2(1H)-one], the “FRET activity (IC50 <30 μM) BRD4(1)” value in assay [1] is listed as “Active”. Further, the “FRET activity (IC50 <30 μM) BRD2(2)” value in assay [2] is recorded as “Active”.
Turning to `Cc1noc(C)c1-c1ccc(=O)n(Cc2ccc3nccnc3c2)c1` [Example 18, 5-(3,5-Dimethylisoxazol-4-yl)-1-(quinoxalin-6-ylmethyl)pyridin-2(1H)-one], the “FRET activity (IC50 <30 μM) BRD4(1)” value in assay [1] is “Active”. Moreover, the “FRET activity (IC50 <30 μM) BRD2(2)” value in assay [2] is given as “Active”.
Regarding `Cc1oncc1-c1cc(C)c(=O)n(Cc2ccccc2)n1` [Example 20, 2-Benzyl-4-methyl-6-(5-methylisoxazol-4-yl)pyridazin-3(2H)-one], the “FRET activity (IC50 <30 μM) BRD4(1)” value in assay [1] is “Not Active”. Further, the “FRET activity (IC50 <30 μM) BRD2(2)” value in assay [2] was “Active”.
The corresponding values for `Cc1noc(C)c1-c1ccc(=O)n(Cc2cccc(Cl)c2)n1` [Example 23, 2-(3-Chlorobenzyl)-6-(3,5-dimethylisoxazol-4-yl)pyridazin-3(2H)-one] are “Active” and “Active”.
On the same counts, the results for `Cc1noc(C)c1-c1ccc(=O)n(Cc2cccc(C(F)(F)F)c2)n1` [Example 31, 6-(3,5-Dimethylisoxazol-4-yl)-2-(3-(trifluoromethyl)benzyl)pyridazin-3(2H)-one] are “Active” and “Active”.
Turning to `Cc1cc(F)cc(Cn2nc(-c3c(C)noc3C)ccc2=O)c1` [Example 32, 6-(3,5-Dimethylisoxazol-4-yl)-2-(3-fluoro-5-methylbenzyl)pyridazin-3(2H)-one], the “FRET activity (IC50 <30 μM) BRD4(1)” value in assay [1] was “Not Active”. For the same compound, the “FRET activity (IC50 <30 μM) BRD2(2)” value in assay [2] is reported as “Active”.
For the compound `COc1ccc(Cn2nc(-c3c(C)noc3C)ccc2=O)cc1` [Example 33, 6-(3,5-Dimethylisoxazol-4-yl)-2-(4-methoxybenzyl)pyridazin-3(2H)-one], the “FRET activity (IC50 <30 μM) BRD4(1)” value in assay [1] is listed as “Active”. The “FRET activity (IC50 <30 μM) BRD2(2)” value in assay [2] is given as “Active”.
Take `COc1cccc(Cn2nc(-c3c(C)noc3C)ccc2=O)c1` [Example 35, 6-(3,5-Dimethylisoxazol-4-yl)-2-(3-methoxybenzyl)pyridazin-3(2H)-one]: in assay [1], the “FRET activity (IC50 <30 μM) BRD4(1)” value was “Active”. Also, the “FRET activity (IC50 <30 μM) BRD2(2)” value in assay [2] is “Active”.
As to `Cc1noc(C)c1-c1ccc(=O)n(Cc2cccc(OC(F)(F)F)c2)n1` [Example 36, 6-(3,5-Dimethylisoxazol-4-yl)-2-(3-(trifluoromethoxy)benzyl)pyridazin-3(2H)-one], in assay [1], the “FRET activity (IC50 <30 μM) BRD4(1)” value is recorded as “Active”. In addition, in assay [2], the “FRET activity (IC50 <30 μM) BRD2(2)” value is listed as “Active”.
Consider `Cc1noc(C)c1-c1ccc(=O)n(CC2CCOCC2)n1` [Example 37, 6-(3,5-Dimethylisoxazol-4-yl)-2-((tetrahydro-2H-pyran-4-yl)methyl)pyridazin-3(2H)-one], for which the “FRET activity (IC50 <30 μM) BRD4(1)” value in assay [1] is listed as “Active”. Besides, the “FRET activity (IC50 <30 μM) BRD2(2)” value in assay [2] is listed as “Active”.
Take `Cc1noc(C)c1-c1ccc(=O)n(Cc2ccccc2OC(F)(F)F)c1` [Example 40, 5-(3,5-Dimethylisoxazol-4-yl)-1-(2-(trifluoromethoxy)benzyl)pyridin-2(1H)-one]: the “FRET activity (IC50 <30 μM) BRD4(1)” value in assay [1] is on record as “Active”. Besides, the “FRET activity (IC50 <30 μM) BRD2(2)” value in assay [2] is recorded as “Active”.
As for `Cc1ccc(Cn2cc(-c3c(C)noc3C)ccc2=O)cc1` [Example 41, 5-(3,5-Dimethylisoxazol-4-yl)-1-(4-methylbenzyl)pyridin-2(1H)-one], the “FRET activity (IC50 <30 μM) BRD4(1)” value in assay [1] is given as “Active”. For the same compound, in assay [2], the “FRET activity (IC50 <30 μM) BRD2(2)” value is “Active”.
Consider `Cc1noc(C)c1-c1ccc(=O)n(CC2CC2)n1` [Example 45, 2-(Cyclopropylmethyl)-6-(3,5-dimethylisoxazol-4-yl)pyridazin-3(2H)-one], for which the “FRET activity (IC50 <30 μM) BRD4(1)” value in assay [1] is given as “Active”. Moreover, in assay [2], the “FRET activity (IC50 <30 μM) BRD2(2)” value was “Active”.
For `Cc1noc(C)c1-c1ccc(=O)n(CC2CC2)c1` [Example 48, 1-(Cyclopropylmethyl)-5-(3,5-dimethylisoxazol-4-yl)pyridin-2(1H)-one], in assay [1], the “FRET activity (IC50 <30 μM) BRD4(1)” value was “Active”. Besides, in assay [2], the “FRET activity (IC50 <30 μM) BRD2(2)” value is given as “Active”.
Consider `Cc1oncc1-c1ccc(=O)n(Cc2ccccc2)c1` [Example 57, 1-Benzyl-5-(5-methylisoxazol-4-yl)pyridin-2(1H)-one], for which the “FRET activity (IC50 <30 μM) BRD4(1)” value in assay [1] was “Active”. For the same compound, the “FRET activity (IC50 <30 μM) BRD2(2)” value in assay [2] is recorded as “Active”.
In the case of `O=c1ccc(-c2cnoc2)cn1Cc1ccccc1` [Example 58, 1-Benzyl-5-(isoxazol-4-yl)pyridin-2(1H)-one], the “FRET activity (IC50 <30 μM) BRD4(1)” value in assay [1] is “Not Active”. The “FRET activity (IC50 <30 μM) BRD2(2)” value in assay [2] is on record as “Active”.
On to `O=c1ccc(-c2cnsc2)cn1Cc1ccccc1` [Example 59, 1-Benzyl-5-(isothiazol-4-yl)pyridin-2(1H)-one], for which, in assay [1], the “FRET activity (IC50 <30 μM) BRD4(1)” value is given as “Not Active”. In assay [2], the “FRET activity (IC50 <30 μM) BRD2(2)” value was “Active”.
Turning to `Cc1noc(C)c1Nc1ccc(=O)n(Cc2ccccc2)n1` [Example 61], in assay [1], the “FRET activity (IC50 <30 μM) BRD4(1)” value is recorded as “Active”. Also, in assay [2], the “FRET activity (IC50 <30 μM) BRD2(2)” value is on record as “Active”.
Take `O=c1ccc(-c2ccnc(O)c2)cn1Cc1ccccc1` [Example 62, 1-Benzyl-2′-hydroxy-[3,4′-bipyridin]-6(1H)-one]: the “FRET activity (IC50 <30 μM) BRD4(1)” value in assay [1] is “Not Active”. Moreover, the “FRET activity (IC50 <30 μM) BRD2(2)” value in assay [2] is given as “Active”.
On to `Cc1noc(C)c1-c1cc(C2CC2)c(=O)n(Cc2ccccc2)c1` [Example 67, 1-Benzyl-3-cyclopropyl-5-(3,5-dimethylisoxazol-4-yl)pyridin-2(1H)-one], for which the “FRET activity (IC50 <30 μM) BRD4(1)” value in assay [1] is given as “Active”. For the same compound, the “FRET activity (IC50 <30 μM) BRD2(2)” value in assay [2] is reported as “Active”.
Consider `Cc1noc(C)c1-c1ccc(=O)n(C(=O)c2ccc(F)cc2)c1` [Example 68, 5-(3,5-Dimethylisoxazol-4-yl)-1-(4-fluorobenzoyl)pyridin-2(1H)-one], for which the “FRET activity (IC50 <30 μM) BRD4(1)” value in assay [1] is given as “Active”. Moreover, the “FRET activity (IC50 <30 μM) BRD2(2)” value in assay [2] is “Active”.
As for `Cc1noc(C)c1-c1ccc(=O)n(C(=O)c2ccc(Cl)cc2)c1` [Example 69, 1-(4-Chlorobenzoyl)-5-(3,5-dimethylisoxazol-4-yl)pyridin-2(1H)-one], in assay [1], the “FRET activity (IC50 <30 μM) BRD4(1)” value is recorded as “Active”. In assay [2], the “FRET activity (IC50 <30 μM) BRD2(2)” value was “Active”.
As for `Cc1noc(C)c1-c1cc(N)c(=O)n(C(C)c2ccc(C#N)cc2)c1` (stereo not drawn) [Example 269, 4-(1-(3-amino-5-(3,5-dimethylisoxazol-4-yl)-2-oxopyridin-1(2H)-yl)ethyl)benzonitrile], the “FRET activity (IC50 <30 μM) BRD4(1)” value in assay [1] is “Not Active”.
